Experimental data published in PubChem BioAssay (NCI).
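Values below derive from 48-hour exposures of cells grown in 96-well plates, with endpoints linearly interpolated between the two concentrations bracketing the appropriate inhibition level. The concentration for 50% growth inhibition is given as GI50. Definition used: TGI = concentration required for complete inhibition of growth.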

Tests used:
Assay in all cases: NCI tumour cell line growth inhibition, 48 h
A549 NSCLC = test system: A549 NSCLC
OVCAR-8 ovarian = test system: OVCAR-8 ovarian
SK-MEL-5 melanoma = test system: SK-MEL-5 melanoma
CAKI-1 renal = test system: CAKI-1 renal
NCI-H23 lung = test system: NCI-H23 lung
LOX IMVI melanoma = test system: LOX IMVI melanoma
HOP-92 NSCLC = test system: HOP-92 NSCLC
CCRF-CEM leukemia = test system: CCRF-CEM leukemia
HCT-116 colon = test system: HCT-116 colon
SK-OV-3 ovarian = test system: SK-OV-3 ovarian

How did the TGI (A549 NSCLC) turn out when `CCSC1=C(C)N(C=NC(C)(C)C)CC1` was run?
The TGI was greater than 100 µM.

What about the TGI (OVCAR-8 ovarian) of the same compound?
The TGI was greater than 100 µM.

And the TGI (SK-MEL-5 melanoma)?
The TGI was greater than 100 µM.

What about the TGI (CAKI-1 renal) of the same compound?
Its TGI is greater than 100 µM.

What about the TGI (NCI-H23 lung) of the same compound?
Its TGI is greater than 100 µM.

What about the TGI (LOX IMVI melanoma) of the same compound?
Its TGI is greater than 100 µM.

And the TGI (HOP-92 NSCLC)?
The TGI was greater than 100 µM.

And the TGI (CCRF-CEM leukemia)?
The TGI was greater than 100 µM.

What about the TGI (HCT-116 colon) of the same compound?
The TGI was greater than 100 µM.

What about the TGI (SK-OV-3 ovarian) of the same compound?
The TGI was greater than 100 µM.

With `[N-]=[N+]=CC(=O)OCC1SCCCS1` as the compound, how does the TGI (SK-MEL-5 melanoma) read?
The TGI was greater than 100 µM.

What about the TGI (CAKI-1 renal) of the same compound?
Its TGI is greater than 100 µM.

What about the TGI (NCI-H23 lung) of the same compound?
Its TGI is greater than 100 µM.

What about the TGI (LOX IMVI melanoma) of the same compound?
Its TGI is greater than 100 µM.

And the TGI (HOP-92 NSCLC)?
The TGI was greater than 100 µM.

What about the TGI (CCRF-CEM leukemia) of the same compound?
The TGI was greater than 100 µM.

And the TGI (HCT-116 colon)?
Its TGI is greater than 100 µM.

And the TGI (SK-OV-3 ovarian)?
The TGI was greater than 100 µM.

For `NC(=S)Nc1[nH]c(=S)nc2c1SC1=N/C(=C\c3ccco3)C(=O)N12`, which TGI (A549 NSCLC) is on record?
The TGI was greater than 100 µM.

What about the TGI (OVCAR-8 ovarian) of the same compound?
The TGI was greater than 100 µM.

What about the TGI (SK-MEL-5 melanoma) of the same compound?
Its TGI is greater than 100 µM.

What about the TGI (CAKI-1 renal) of the same compound?
Its TGI is greater than 100 µM.

And the TGI (NCI-H23 lung)?
The TGI was greater than 100 µM.

And the TGI (LOX IMVI melanoma)?
The TGI was greater than 100 µM.

And the TGI (HOP-92 NSCLC)?
Its TGI is greater than 100 µM.

And the TGI (CCRF-CEM leukemia)?
Its TGI is greater than 85.4 µM.

What about the TGI (HCT-116 colon) of the same compound?
The TGI was greater than 100 µM.

And the TGI (SK-OV-3 ovarian)?
Its TGI is greater than 100 µM.

How did the TGI (A549 NSCLC) turn out when `CCOC(=O)C(=Cc1ccc(C(=O)OC)cc1)C(=O)OCC` was run?
Its TGI is 12.4 µM.

And the TGI (OVCAR-8 ovarian)?
Its TGI is 10.3 µM.

What about the TGI (SK-MEL-5 melanoma) of the same compound?
Its TGI is 4.64 µM.

What about the TGI (CAKI-1 renal) of the same compound?
The TGI was 3.35 µM.

What about the TGI (NCI-H23 lung) of the same compound?
The TGI was 3.36 µM.

And the TGI (LOX IMVI melanoma)?
Its TGI is 3.55 µM.

What about the TGI (HOP-92 NSCLC) of the same compound?
Its TGI is 4.02 µM.

What about the TGI (CCRF-CEM leukemia) of the same compound?
The TGI was 4.71 µM.

What about the TGI (HCT-116 colon) of the same compound?
Its TGI is 12.5 µM.

What about the TGI (SK-OV-3 ovarian) of the same compound?
The TGI was 26.4 µM.

How did the TGI (A549 NSCLC) turn out when `CC(=O)O[C@]12CCCC1C1(O)C(O)CCCC12` (stereo partly specified) was run?
Its TGI is greater than 100 µM.

What about the TGI (OVCAR-8 ovarian) of the same compound?
The TGI was greater than 100 µM.

What about the TGI (SK-MEL-5 melanoma) of the same compound?
The TGI was greater than 100 µM.

What about the TGI (NCI-H23 lung) of the same compound?
The TGI was greater than 100 µM.

What about the TGI (LOX IMVI melanoma) of the same compound?
Its TGI is greater than 100 µM.

What about the TGI (CCRF-CEM leukemia) of the same compound?
Its TGI is greater than 100 µM.

And the TGI (HCT-116 colon)?
Its TGI is greater than 100 µM.

What about the TGI (SK-OV-3 ovarian) of the same compound?
Its TGI is greater than 100 µM.

Which results are given for `CSC1=C(C#N)C(=O)N(c2ccc(C)cc2)C(=S)C1C#N` (stereo unspecified)?
TGI (A549 NSCLC): > 100 µM; TGI (OVCAR-8 ovarian): > 100 µM; TGI (SK-MEL-5 melanoma): > 100 µM; TGI (CAKI-1 renal): > 100 µM; TGI (LOX IMVI melanoma): > 100 µM; TGI (HOP-92 NSCLC): > 100 µM; TGI (CCRF-CEM leukemia): > 100 µM; TGI (HCT-116 colon): > 100 µM; TGI (SK-OV-3 ovarian): > 100 µM

Which GI50 (A549 NSCLC) does the source give for `C#CC(F)(F)[C@]1(O)CC[C@H]2[C@@H]3CCC4=CC(=O)CCC4=C3[C@@H](c3ccc(C(C)=O)cc3)C[C@@]21C` here?
The GI50 was 25.9 µM.

And the TGI (A549 NSCLC)?
Its TGI is greater than 100 µM.

What about the GI50 (OVCAR-8 ovarian) of the same compound?
The GI50 was 21.1 µM.

And the TGI (OVCAR-8 ovarian)?
Its TGI is greater than 90.6 µM.

And the GI50 (SK-MEL-5 melanoma)?
Its GI50 is 8.47 µM.

What about the TGI (SK-MEL-5 melanoma) of the same compound?
The TGI was 21.6 µM.

What about the GI50 (HOP-92 NSCLC) of the same compound?
Its GI50 is 0.0456 µM.

What about the TGI (HOP-92 NSCLC) of the same compound?
Its TGI is 0.356 µM.

What about the GI50 (HCT-116 colon) of the same compound?
Its GI50 is 14.1 µM.

What about the TGI (HCT-116 colon) of the same compound?
Its TGI is 42.6 µM.

What about the GI50 (SK-OV-3 ovarian) of the same compound?
Its GI50 is 20.7 µM.

What about the TGI (SK-OV-3 ovarian) of the same compound?
The TGI was greater than 100 µM.

How did the TGI (A549 NSCLC) turn out when `Nc1ccccc1N/C=C\C(=O)C(Cl)(Cl)Cl` was run?
Its TGI is greater than 100 µM.

What about the TGI (OVCAR-8 ovarian) of the same compound?
The TGI was greater than 100 µM.

What about the TGI (SK-MEL-5 melanoma) of the same compound?
The TGI was greater than 100 µM.

What about the TGI (CAKI-1 renal) of the same compound?
Its TGI is 51.3 µM.

And the TGI (NCI-H23 lung)?
Its TGI is 59.9 µM.

And the TGI (LOX IMVI melanoma)?
Its TGI is 29.7 µM.

What about the TGI (HOP-92 NSCLC) of the same compound?
Its TGI is 47.8 µM.

What about the TGI (CCRF-CEM leukemia) of the same compound?
The TGI was greater than 100 µM.

And the TGI (HCT-116 colon)?
The TGI was 29.7 µM.

What about the TGI (SK-OV-3 ovarian) of the same compound?
The TGI was 70.8 µM.

Which results are given for `CCCNC(C#N)c1ccc(C(C#N)NCCC)cc1` (stereo unspecified)?
TGI (A549 NSCLC): > 100 µM; TGI (OVCAR-8 ovarian): > 100 µM; TGI (SK-MEL-5 melanoma): > 100 µM; TGI (CAKI-1 renal): > 100 µM; TGI (NCI-H23 lung): > 100 µM; TGI (LOX IMVI melanoma): > 100 µM; TGI (HOP-92 NSCLC): > 100 µM; TGI (CCRF-CEM leukemia): > 100 µM; TGI (HCT-116 colon): > 100 µM; TGI (SK-OV-3 ovarian): > 100 µM

With `COc1ccc2c(c1)N=C1CSC(c3ccccc3Cl)N1C2` (stereo unspecified) as the compound, how does the TGI (A549 NSCLC) read?
Its TGI is 31.9 µM.

And the TGI (OVCAR-8 ovarian)?
The TGI was 42.4 µM.

And the TGI (SK-MEL-5 melanoma)?
The TGI was 31.4 µM.

What about the TGI (CAKI-1 renal) of the same compound?
The TGI was 24.6 µM.

What about the TGI (NCI-H23 lung) of the same compound?
Its TGI is 49.9 µM.

And the TGI (LOX IMVI melanoma)?
The TGI was 23 µM.

And the TGI (HOP-92 NSCLC)?
The TGI was 82.5 µM.

What about the TGI (HCT-116 colon) of the same compound?
Its TGI is 18.8 µM.

What about the TGI (SK-OV-3 ovarian) of the same compound?
Its TGI is 47.5 µM.
